According to patent US7169907B2, “Derivatives, immunogens, and antibodies for detecting ecstasy-class drugs” (Roche Diagnostics Operations, Inc., priority 2002, dated 2007):

The compounds below were run on antibody MDMA-2.1.1 (assay: Cross-reactivity assay (competitive ELISA) of antibody MDMA-2.1.1). Conditions: ED50 of standard divided by ED50 of drug, times 100.
Format: binding, mice
From the text: (§1) By determining the drug concentration that results in a 50% reduction in binding (ED 50) of a standard, methamphetamine, dividing by the ED50 of each other drug, and then multiplying the result by 100, the percent cross-reactivities shown in Table 2 can be calculated.
(§2) Supernatants are subjected to serial dilutions and re-tested in the ELISA screen above. The dilution providing for about a 50% reduction from the maximum OD is chosen for proceeding to cross-reactivity testing. This consists of repeating the preceding assay with the antibody at the chosen dilution and in the presence of varying concentrations of drugs. The charts shown in FIG. 5 and FIG. 6 present the results of such determinations.

**Q.** Which “% Cross-reactivity” value does the source give for `CN[C@@H](C)Cc1ccc2c(c1)OCO2` [d-MDMA] here?
**A.** The value was 100%.

Each compound was assayed on antibody NEAMP-1.3 (assay: Cross-reactivity assay (competitive ELISA) of antibody NEAMP-1.3). Conditions: ED50 of standard divided by ED50 of drug, times 100.
Format: binding, mice
Procedure: as §1
Microplates were coated with 100 μL Methamphetamine-BSA conjugate 28 and separate plates with 100 μL N-ethylamphetamine-BSA 26 (Q=BSA, 26b) at 1 μg/mL in 0.1 M carbonate buffer, pH 9.5 for 1 hour at 37° C. (humidified).
A criterion for selection was binding to the Methamphetamine-BSA conjugate 28. Table 5 presents binding data for a portion of the screening of the Meth-BSA 28 and NEAMP-BSA 26 (Q=BSA, 26b) coated plates.
as §2, with “drugs.” for “drugs. The charts shown in FIG. 5 and FIG. 6 present the results of such determinations.”

**Q.** With `CN[C@@H](C)[C@H](O)c1ccccc1` [I-ephedrine] as the compound, how does the “Percent Cross-Reactivity” value read?
**A.** The value was 6.7%.

**Q.** `CCC(Cc1ccc2c(c1)OCO2)NC` (stereo not drawn) [MBDB, 3,4-methylenedioxyphenyl-N-methylbutanamine] was tested. Which “Percent Cross-Reactivity” value did it give?
**A.** The value was 20%.

**Q.** `CCNC(C)Cc1ccc2c(c1)OCO2` (stereo not drawn) [MDEA, 3,4-methylenedioxy-N-ethylamphetamine] was tested. Which “Percent Cross-Reactivity” value did it give?
**A.** The value was 507%.

**Q.** For `CNC(C)Cc1ccc2c(c1)OCO2` (stereo not drawn) [MDMA, 3,4-methylenedioxy-N-methylamphetamine], which “Percent Cross-Reactivity” value is on record?
**A.** The value was 114%.

**Q.** With `C[C@H]1[C@H](c2ccccc2)OCCN1C` [Phendimetrazine] as the compound, how does the “Percent Cross-Reactivity” value read?
**A.** The value was 0.6%.

**Q.** How did the “Percent Cross-Reactivity” value turn out when `CN[C@@H](C)[C@@H](O)c1ccccc1` [Pseudoephedrine, pseudoephedrine] was run?
**A.** Its value is 2.0%.

**Q.** How did the “Percent Cross-Reactivity” value turn out when `C[C@H](N)Cc1ccccc1` [d-AMP, d-amphetamine] was run?
**A.** Its value is 32.5%.

**Q.** How did the “Percent Cross-Reactivity” value turn out when `CN[C@@H](C)Cc1ccccc1` [d-MAMP, d-methamphetamine] was run?
**A.** Its value is 100%.
